# Assays:
# HaCaT cells [1] = test: Viability of HaCaT cells, MTT assay; type: cell-based; settings: alone, FIG. 8A
# Method: (§1) Cell lines were cultured according to standard mammalian tissue culture protocols and sterile technique. Human monocytes THP-1 cells were cultured in RPMI medium 1640. HaCaT cells were cultured in DMEME medium. All media was supplemented with 10% fetal bovine serum, streptomycin ([…]), penicillin (100 U/ml) and Nystatin (12.5 U/ml). Cells were incubated in 5% CO2 at 37° C. All tissue culture cells were maintained in 75 cm^2 cell culture treated flask (Eppendorf) and all the media and supplements were obtained from Biological Industries. Treatment were performed by plating cells in a 96 micro well delta surface plates (Eppendorf) in a starting confluence of 1×10^4 cells/well.
# (§2) The viability of the cells following treatment was determined using a commercially available MTT assay kit (Abcam, ab146345) and performed according to manufacturer's instructions. Briefly, cells were seeded in a 96-well plate at a density of 1×10^4 cells/well (n=4) in 100 μl cell specific media. After overnight incubation, cells were exposed to varying concentrations of isolated components (CBD, CBG and PSO, each alone) and combination samples as described in Example 1, in 100 μl of specific media, by adding a stock solution to the medium in amount that provides the indicated concentration (see, Tables 1, 2A and 2B). Then, plates were incubated in a humidified atmosphere containing 5% CO2 in air at 37° C. for 24 hours. According to the MTT standard protocol, after 24 hours treatment, the media was removed, and all cells were incubated with serum-free media containing 0.5 mg/ml MTT for 4 hours at the incubator. The MTT purple crystals formed by the viable cells were dissolved using isopropanol containing 0.04 mol/L HCl. The quantification was determined by measuring the optical density at 570 nm in a spectrophotometer reader (Spark, Tecan). Results are presented as proportional viability (%) by comparing between treated and untreated groups.
# (§3) Cytotoxic potential of an extract was determined according to the following criteria:
# Cytotoxic: Viability is reduced to less than 70% of vehicle control. […]
# [2] = test system: IL6 secretion from LPS-stimulated THP-1 cells; test: IL6 secretion from LPS-stimulated THP-1 cells (HTRF); type: cell-based, Human; settings: alone
# Method: (§4) Human THP-1 monocytes were seeded in a 96-well plate (Eppendorf) at a density of 3×10^5 cells/well (n=4) in 100 μl cell specific media and was differentiated using phorbol-12-myristate 13-acetate (PMA) (Sigma-Aldrich) at a final concentration of 200 nM. PMA supplemented media was removed after 72 hours. Cells were then washed twice with PBS and rested in fresh PMA-free media for further 24 hours in order to obtain phenotypic characteristics of macrophages (Daigneault et al., 2010, PLoS One, 5, e8668).
# (§5) After 24 hours, cells were stimulated by Lipopolysaccharides (LPS) at a final concentration of 1μg/ml and were treated with the samples using specific media containing 5% FBS (100 μL of media solution containing the tested materials at the indicated concentration; see, Example 1).
# (§6) After 24 hours, the cells supernatants were harvested and diluted up to 5 times in working media to avoid the hook effect. HTRF assays were performed in white 96-well plate (CisBio Bioassays) with a total working volume of 20 μL. All HTRF reagents were purchased from CisBio Bioassays and reconstituted according to the supplier protocols. For each assay 16 μL of diluted supernatants samples were incubated with 4 μL mixed solution containing donor and acceptor antibodies. Antibodies for the detection of TNFα and IL6 were used.
# (§7) After 2 hours incubation, HTRF signals were measured using SPARK® multimode microplate reader with an excitation filter at 320 nm and fluorescence wavelength measurement at 620 and 665 nm, an integration delay of 60 μs and an integration time of 400 μs. Results were analyzed with a two-wavelength signal ratio: [intensity (665 nm)/intensity (620 nm)]*104. Calculation and analysis of cytokines release was performed according to the supplier protocols and using the 4PL 1/Y2 formula in GraphPad Prism software.
# HaCaT cells [3] = test: Cellular ROS production from HaCaT cells in the presence of H2O2 (DCFDA assay); type: cell-based; settings: each component alone, 5 hours, FIG. 9A
# Method: Cellular ROS production was measured using a DCFDA assay kit (Abcam, ab113851)) according to the manufacturer's protocol. DCFDA (2′,7′-dichlorofluorescein diacetate), a cell-permeable fluorogenic dye, is deacetylated to a non-fluorescent compound by cellular esterases and later oxidized into highly fluorescent DCF (2′,7′-dichlorofluorescein) by ROS, allowing measurement of hydroxyl, peroxyl and other ROS activity within the cell.
# HaCaT cells were seeded at a density of 2.5×10^4 for 24 hours on 96-well plates. After 24 hours, the cells were washed twice with 1× buffer assay and then incubated with 25 μM DCFDA in 1× buffer assay in a 37° C. incubator for 45 minutes. After two washes with 1× buffer assay, the cells were exposed to the tested samples and to 0.25 M H202, each added separately to the medium.
# Cell fluorescence in the 96-well plates was measured at 488 nm excitation and 525 nm emission using a Tecan spark plate reader (Tecan US, Inc. Morrisville, NC), 5 hours after the addition of the tested samples or sample combinations.
# The control used as reference are cells treated only with H2O2. The results are shown as percentage of the control.
# [4] = test system: TNFα secretion from LPS-stimulated THP-1 cells; test: TNFα secretion from LPS-stimulated THP-1 cells (HTRF); type: cell-based, Human; settings: for ratio of TNFα secretion to cells viability: alone; for TNFα secretion (percentage of the control): each alone, highest concentration, FIG. 2A
# Method: as §4, §5, §6, §7
# [5] = Viability of THP-1 cells, MTT assay; type: cell-based, Human; settings: human, THP-1 cells (monocytes); for viability at 24 h: CBD and CBG alone, treatments reported with the IL6 data, read-out: viability levels
# Method: as §1, §2, §3
# (§8) Cytotoxic: Viability is reduced to less than 70% of vehicle control.
# (§9) Non-cytotoxic: Viability is >70% of vehicle control
# THP-1 cells = test: Viability of THP-1 cells, MTT assay; type: cell-based, Human; settings: 24 hours
# Method: as §1, §2, §3, §8, §9
# [6] = alone, reported with the TNFα data
# [7] = each component alone, all tested concentrations, FIG. 1A-B
Structure (SMILES),toxicity to keratinocyte cells (HaCaT cells [1]; only at a high concentration),ratio of IL6 secretion to cells viability ([2]; 40 μM),"ratio between IL-6 secretion and viability ([2]; highest concentration, FIG. 5B)","ROS production from HaCaT cells, effect relative to the solvent (ethanol) (HaCaT cells [3])",ratio of TNFα secretion to cells viability ([4]; 20 μM),"ratio of TNFα secretion to cells viability ([4]; medium concentration, FIG. 2B)",TNFα secretion (percentage of the control) [4],viability at 24 h [5] [%],"viability at 24 h, 20 µM [5, 6] [%]",THP-1 cells viability (THP-1 cells; [7]),"toxicity to keratinocyte cells (HaCaT cells [1]; high concentration, e.g. 40 μM)",viability of HaCaT cells (toxicity) (HaCaT cells [1]; higher concentration),ratio of IL6 secretion to cells viability ([2]; lowest tested concentration of 10 μM),ratio of TNFα secretion to cells viability ([4]; 10 μM),"ratio of TNFα secretion to cells viability ([4]; lowest concentration, FIG. 2B)","viability at 24 h, 10 µM ([5]; alone, 10 μM, reported with the TNFα data) [%]","THP-1 cells viability (THP-1 cells; 20 μM, FIG. 1A)"
"CCCCCc1cc(O)c(C/C=C(\C)CCC=C(C)C)c(O)c1 [CBG, cannabigerol]",mild toxicity,0.29,high reduction of the ratio,very mild effect,about 0.6,lowest ratio,elevation of TNFα secretion,> 140,140,enhanced viability,–,–,–,–,–,–,–
"C=C(C)[C@@H]1CCC(C)=C[C@H]1c1c(O)cc(CCCCC)cc1O [CBD, cannabidiol]",–,–,–,very mild effect,about 0.6,–,elevation of TNFα secretion,> 140,140,enhanced viability,toxic,toxic,0.23,about 0.6,lowest ratio,140,most pronounced effect
